Assay results: publication PMC7576480, “Hydroxy-Propil-β-Cyclodextrin Inclusion Complexes of two Biphenylnicotinamide Derivatives: Formulation and Anti-Proliferative Activity Evaluation in Pancreatic Cancer Cell Models” (International Journal of Molecular Sciences, 2020)
Like-named read-outs stand apart in the source and are kept apart here.

Assays:
[1] = Solubility in ultra-pure water and in HP-β-CD solutions at 37 °C; assay type: physicochemical; settings: for solubility: 37 °C, thermodynamic from solid, ultra-pure water, 37 ± 0.5 °C; for Increase in aqueous solubility: HP-β-CD 45% w/v versus water alone
Procedure: Quantitative analysis of PTA34 and PTA73 was carried out by spectrophotometry using a dual-beam UV-VIS Lambda 20 Bio spectrophotometer (Perkin Elmer, Milan, Italy) and quartz cuvettes, with a capacity of 1 mL, using methanol as solvent. In the case of PTA34 the reading was carried out at a wavelength of 320 nm, and a calibration straight line (r^2 = 0.9979), in the concentration range between 0.15 mg/mL (4.45 × 10^−4 mM) and 0.015 mg/mL (4.45 × 10^−5 mM), was obtained. For PTA73 the reading was carried out at a wavelength of 340 nm, and a calibration straight line (r^2 = 0.9999) in the concentration range between 0.16 mg/mL (5.01 × 10^−4 mM) and 0.016 mg/mL (5.01 × 10^−5 mM), was obtained.
(§1) The phase solubility study was conducted according with Higuchi and Connors. In detail, an excess of PTA34 or PTA73 was added to 1 mL of solutions containing HP-β-CD in the appropriate concentration (0–45% w/v) in 4 mL vials, with screw caps to avoid evaporation. The obtained mixtures were vigorously vortexed for about 5 min, and the suspensions thus obtained were placed under constant stirring in a thermostat bath at 37 ± 0.5 °C for about 48 h, until the saturation of the system was achieved. Then, each suspension was centrifuged at 13,200 rpm (MIKRO 22 R, Hettich Zentrifugen, Germany) in order to remove the uncomplexed drug and the supernatant was analyzed by spectrophotometry for the quantification of the drug, after appropriate dilution. All determinations were conducted at least in triplicate. The obtained data were used to determine the apparent stability 1:1 constant (K1:1) of the HP-β-CD inclusion complexes with the biphenylnicotinamide derivatives, using the Higuchi and Connors equation: K1:1=slope/S0(1−slope) where slope is the slope of the obtained phase solubility diagrams straight line, and S0 represents PTA34 or PTA73 intrinsic solubility determined in the same way.

[2] = Phase-solubility study (Higuchi–Connors), apparent 1:1 stability constant with HP-β-CD; assay type: physicochemical; settings: complex with HP-β-CD, from the phase solubility diagram, 37 ± 0.5 °C
Procedure: as §1

[3] = system: AsPC-1 cells; experiment: MTT cell proliferation assay; assay type: cell-based; settings: Homo sapiens, ASPC1, AsPC-1, 72 h, concentration in terms of PTA, ± SD
Procedure: (§2) Human pancreatic ductal adenocarcinoma (PDAC) PANC-1 cells, human pancreas adenocarcinoma ascites metastasis cells AsPC-1, and undifferentiated human pancreatic carcinoma MIAPaCa-2 cells, were purchased from ATCC®. PANC-1 and AsPC-1 cells were cultured in Dulbecco’s modified Eagle’s medium (DMEM), supplemented with fetal bovine serum (FBS), to a final concentration of 10%, L-glutamine 1% (v/v), and penicillin/streptomycin 1% (v/v). MIA PaCa-2 cells were grown in Roswell Park Memorial Institute (RPMI) medium, supplemented as above, and in addition with horse serum, to a final concentration of 2.5%. Cells were maintained in a humid atmosphere of 95% air and 5% CO2 at 37 °C. All materials for cell culturing were purchased from EuroClone (Pero, Milan, Italy).
(§3) The 3-(4,5-dimethylthiazol-2-yl)-2,5- diphenyltetrazoliumbromide (MTT) assay was performed as previously described to investigate the effect of hydroxy-propil-β-cyclodextrin-complexed PTA34 and PTA73 (PTA34/HP-β-CD and PTA73/HP-β-CD, respectively) on cell viability of PANC-1, AsPC-1, and MIA PaCa-2 cell lines. The same uncomplexed compounds and HP-β-CD alone were also tested as reference compounds. Untreated cells were used as a […]. In particular, cells were seeded in 96 well plates at a density of 5000 cells/well, incubated for 24 h in culturing medium, and subsequently treated for 72 h, with compounds at 0.01–10 µM concentrations range, in terms of PTA34 or PTA73, included. HP-β-CD–cyclodextrin alone was tested in the concentrations range corresponding to that present in the complex, namely 2.9–2900 µg/mL. After the incubation period 10 µL of a 0.5% (w/v) MTT/PBS solution were added to each well, and the incubation was prolonged further for 2 h. After this period, medium was removed and replaced with 100 µL of DMSO. The absorbance in each well was measured by a microplate reader (MULTISKAN Sky, ThermoScientific). The results are shown as dose/effect plots of the mean of three different experiments. The IC50 was defined as the drug concentration yielding a fraction of affected (no surviving) cells = 0.5, normalized with untreated cells, and was calculated utilizing CalcuSyn v.1.1.1 software (Biosoft, UK).

[4] = system: MIA PaCa-2 cells; experiment: MTT cell proliferation assay; assay type: cell-based; settings: Homo sapiens, MIA PaCa-2, 72 h, concentration in terms of PTA, ± SD
Procedure: as §2, §3

[5] = system: Panc-1 cells; experiment: MTT cell proliferation assay; assay type: cell-based; settings: Homo sapiens, Panc-1, 72 h, concentration in terms of PTA, ± SD
Procedure: as §2, §3

[6] = system: AsPC-1 cells; experiment: Cell cycle analysis by flow cytometry (PI staining); assay type: cell-based, human; settings: AsPC-1, 1 µM in terms of PTA, 24 h
Procedure: (§4) For the cell cycle analysis, human pancreatic cancer cells were seeded in 60 mm dishes at a density of 500,000/well and incubated for 24 h at 37 °C, with PTA34, PTA73 both complexed and not at concentration 1 µM in terms of PTA’s, and with cyclodextrin alone at concentration equal to 290 µg/mL. Cells were then harvested, washed twice in ice-cold PBS pH 7.4, fixed in 4 mL of 70% ethanol, and stored at -20 °C until analysis. The cell cycle modulation induced by treatments was studied as previously described by propidium iodide (PI) staining; the pellet was resuspended in PBS without Ca^2+ and Mg^2+, containing 1 mg/mL RNase, 0.01% NP40, and 50 ĉg/mL PI (Sigma), and then flow cytometry analysis was performed on Attune NxT acoustic focusing cytometer (Life Technologies). Data were interpreted using the CytExpert software v.1.2, provided by the manufacturer.

[7] = system: MIA PaCa-2 cells; experiment: as above; assay type: cell-based, human; settings: MIA PaCa-2, 1 µM in terms of PTA, 24 h
Procedure: as §4

[8] = system: Panc-1 cells; experiment: as above; assay type: cell-based, human; settings: PANC-1, 1 µM in terms of PTA, 24 h
Procedure: as §4

[9] = system: MIA PaCa-2 cells; set-up: method as in PMID 30583077; settings: low doses; cited from earlier work
[10] = HP-β-CD 0% w/v, read-out: Water solubility (intrinsic solubility, S0)
[11] = read-out: Intrinsic solubility (S0)

solubility [1, 10] [µg/mL] | solubility [1, 11] [µM] | Increase in aqueous solubility [1] | 1:1 apparent formation (equilibrium) constant, Ks [2] [M⁻¹] | IC50 [3] [µM] | IC50 [4] [µM] | IC50 [5] [µM] | Compound | Cells arrested in G2/M phase [6] [%] | Cells arrested in G2/M phase [7] [%] | Cells arrested in G2/M phase [8] [%] | Antitumor activity [9]
1.95 ± 0.35 | 5.78 | about 150 times | 503.9 | 1.9 ± 0.3 | 0.31 ± 0.04 | 2.5 ± 0.5 | O=C(Nc1ccc(-c2ccc(F)cc2)cc1[N+](=O)[O-])c1cccnc1 [PTA34] | 93 | 36.7 | 57.9 | remarkable antitumor activity
7.16 ± 0.34 | 22.4 | ~106 times | 369.2 | 2.3 ± 0.6 | 0.006 ± 0.002 | 1.5 ± 0.2 | O=C(Nc1ccc(-c2ccccc2)cc1[N+](=O)[O-])c1cccnc1 [PTA73] | 94.1 | 45.2 | 64.9 | remarkable antitumor activity
